Source: US20100093722A1, “HETEROARYL AND PHENYL SUBSTITUTED THIENO[2,3-d]PYRIMIDINES AND THEIR USE AS ADENOSINE A2a RECEPTOR ANTAGONISTS” (priority 2008, published 2010)

How the values were obtained:
[1] = target: T1, human adenosine A2a receptor (Homo sapiens, UniProt P29274); experiment: Adenosine A2a Receptor Functional Assay (A2AGAL2); type: cell-based; conditions: CHO-K1 cells overexpressing human A2a, cAMP inducible beta-galactosidase reporter, 15 nM NECA agonist challenge
T1 construct: expressed in transfected cells; host or cells: CHO-K1
T1 sequence (P29274 whole entry): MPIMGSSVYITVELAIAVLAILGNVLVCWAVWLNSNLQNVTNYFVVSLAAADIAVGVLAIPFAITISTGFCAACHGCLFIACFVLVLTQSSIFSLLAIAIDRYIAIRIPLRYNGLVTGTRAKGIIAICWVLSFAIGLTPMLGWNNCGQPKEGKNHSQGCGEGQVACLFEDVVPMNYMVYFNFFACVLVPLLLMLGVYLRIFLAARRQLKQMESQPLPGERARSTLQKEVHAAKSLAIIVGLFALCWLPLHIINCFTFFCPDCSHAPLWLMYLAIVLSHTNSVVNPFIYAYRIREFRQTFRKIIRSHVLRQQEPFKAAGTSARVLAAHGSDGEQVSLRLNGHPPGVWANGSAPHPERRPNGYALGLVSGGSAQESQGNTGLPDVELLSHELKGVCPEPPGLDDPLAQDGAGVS
Experimental: Adenosine A2a Receptor Functional Assay (A2AGAL2)
To initiate the functional assay, cryopreserved CHO-K1 cells overexpressing the human adenosine A2a receptor and containing a cAMP inducible beta-galactosidase reporter gene were thawed, centrifuged, DMSO containing media removed, and then seeded with fresh culture media into clear 384-well tissue culture treated plates (BD #353961) at a concentration of 10K cells/well. Prior to assay, these plates were cultured for two days at 37° C., 5% CO2, 90% Rh. On the day of the functional assay, culture media was removed and replaced with 45 uL assay medium (Hams/F-12 Modified (Mediatech #10-080CV) supplemented w/0.1% BSA). Test compounds were diluted and 11 point curves created at a 1000× concentration in 100% DMSO. Immediately after addition of assay media to the cell plates, 50 nL of the appropriate test compound antagonist or agonist control curves were added to cell plates using a Cartesian Hummingbird. Compound curves were allowed to incubate at room temperature on cell plates for approximately 15 minutes before addition of a 15 nM NECA (Sigma E2387) agonist challenge (5 uL volume). A control curve of NECA, a DMSO/Media control, and a single dose of Forskolin (Sigma F3917) were also included on each plate. After additions, cell plates were allowed to incubate at 37° C., 5% CO2, 90% Rh for 5.5-6 hours. After incubation, media was removed, and cell plates were washed 1× 50 uL with DPBS w/o Ca & Mg (Mediatech 21-031-CV). Into dry wells, 20 uL of 1× Reporter Lysis Buffer (Promega E3971 (diluted in dH2O from 5× stock)) was added to each well and plates frozen at −20° C. overnight. For β-galactosidase enzyme calorimetric assay, plates were thawed out at room temperature and 20 μL 2× assay buffer (Promega) was added to each well. Color was allowed to develop at 37° C., 5% CO2, 90% Rh for 1-1.5 h or until reasonable signal appeared. The calorimetric reaction was stopped with the addition of 60 μL/well 1M sodium carbonate. Plates were counted at 405 nm on a SpectraMax Microplate Reader (Molecular Devices). Data was analyzed in Microsoft Excel and IC/EC50 curves were fit using a standardized macro.

[2] = target: T2, human adenosine A1 receptor (Homo sapiens, UniProt P30542); experiment: Adenosine A1 Receptor Functional Assay (A1GAL2); type: cell-based; conditions: CHO-K1 cells overexpressing human A1, cAMP inducible beta-galactosidase reporter, 4 nM r-PIA/1 uM Forskolin challenge
T2 construct: expressed in transfected cells; host or cells: CHO-K1
T2 sequence (P30542 1-326): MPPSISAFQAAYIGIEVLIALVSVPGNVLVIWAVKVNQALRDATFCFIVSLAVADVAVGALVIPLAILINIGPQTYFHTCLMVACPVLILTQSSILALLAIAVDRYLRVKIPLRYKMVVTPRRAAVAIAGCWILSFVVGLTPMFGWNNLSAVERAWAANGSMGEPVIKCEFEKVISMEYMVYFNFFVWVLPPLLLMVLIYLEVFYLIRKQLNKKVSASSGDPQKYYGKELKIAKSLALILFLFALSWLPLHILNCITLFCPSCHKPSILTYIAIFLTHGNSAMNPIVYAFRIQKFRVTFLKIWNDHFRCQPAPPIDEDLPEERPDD
Experimental: Adenosine A1 Receptor Functional Assay (A1GAL2)
To initiate the functional assay, cryopreserved CHO-K1 cells overexpressing the human adenosine A1 receptor and containing a cAMP inducible beta-galactosidase reporter gene were thawed, centrifuged, DMSO containing media removed, and then seeded with fresh culture media into clear 384-well tissue culture treated plates (BD #353961) at a concentration of 10K cells/well. Prior to assay, these plates were cultured for two days at 37+ C., 5% CO2, 90% Rh. On the day of the functional assay, culture media was removed and replaced with 45 uL assay medium (Hams/F-12 Modified (Mediatech #10-080CV) supplemented w/0.1% BSA). Test compounds were diluted and 11 point curves created at a 1000× concentration in 100% DMSO. Immediately after addition of assay media to the cell plates, 50 nL of the appropriate test compound antagonist or agonist control curves were added to cell plates using a Cartesian Hummingbird. Compound curves were allowed to incubate at room temperature on cell plates for approximately 15 minutes before addition of a 4 nM r-PIA (Sigma P4532)/1 uM Forskolin (Sigma F3917) agonist challenge (5 uL volume). A control curve of r-PIA in 1 uM Forskolin, a DMSO/Media control, and a single dose of Forskolin were also included on each plate. After additions, cell plates were allowed to incubate at 37° C., 5% CO2, 90% Rh for 5.5-6 hours. After incubation, media was removed, and cell plates were washed 1× 50 uL with DPBS w/o Ca & Mg (Mediatech 21-031-CV). Into dry wells, 20 uL of 1× Reporter Lysis Buffer (Promega E3971 (diluted in dH2O from 5× stock)) was added to each well and plates frozen at −20° C. overnight. For β-galactosidase enzyme calorimetric assay, plates were thawed out at room temperature and 20 μL 2× assay buffer (Promega) was added to each well. Color was allowed to develop at 37° C., 5% CO2, 90% Rh for 1-1.5 h or until reasonable signal appeared. The calorimetric reaction was stopped with the addition of 60 μL/well 1M sodium carbonate. Plates were counted at 405 nm on a SpectraMax Microplate Reader (Molecular Devices). Data was analyzed in Microsoft Excel and IC/EC50 curves were fit using a standardized macro.

N#Cc1cccc(-c2nc(N)c3cc(CCc4ccccn4)sc3n2)c1 [Example 2, 3-[4-Amino-6-(2-pyridin-2-yl-ethyl)-thieno[2,3-d]pyrimidin-2-yl]-benzonitrile]
Ki [1]: 79.2 nM
Ki [2]: 468 nM

Nc1nc(-c2ccccc2)nc2sc(Cc3ccc(Cl)nc3)cc12 [Example 3, 6-(6-Chloro-pyridin-3-ylmethyl)-2-phenyl-thieno[2,3-d]pyrimidin-4-ylamine]
Ki [1]: 47.2 nM
Ki [2]: 438 nM

COc1cccc(C(O)c2cc3c(N)nc(-c4cccc(C#N)c4)nc3s2)n1 (centres unmarked) [Example 11, 3-{4-Amino-6-[hydroxy-(6-methoxy-pyridin-2-yl)-methyl]-thieno[2,3-d]pyrimidin-2-yl}-benzonitrile]
Ki [1]: 29.3 nM
Ki [2]: 153 nM

N#Cc1cccc(-c2nc(N)c3cc(C(O)c4ccc(N5CCCCC5)nc4)sc3n2)c1 (centres unmarked) [Example 12, 3-{4-Amino-6-[hydroxy-(3,4,5,6-tetrahydro-2H-[1,2′]bipyridinyl-5′-yl)-methyl]-thieno[2,3-d]pyrimidin-2-yl}-benzonitrile]
Ki [1]: 201 nM
Ki [2]: 1280 nM

N#Cc1cccc(-c2nc(N)c3cc(C(O)c4cccnc4N4CCOCC4)sc3n2)c1 (centres unmarked) [Example 13, 3-{4-Amino-6-[hydroxy-(2-morpholin-4-yl-pyridin-3-yl)-methyl]-thieno[2,3-d]pyrimidin-2-yl}-benzonitrile]
Ki [1]: 171 nM
Ki [2]: 445 nM

N#Cc1cccc(-c2nc(N)c3cc(C(O)c4cccnc4N4CCCC4)sc3n2)c1 (centres unmarked) [Example 14, 3-{4-Amino-6-[hydroxy-(2-pyrrolidin-1-yl-pyridin-3-yl)-methyl]-thieno[2,3-d]pyrimidin-2-yl}-benzonitrile]
Ki [1]: 1040 nM
Ki [2]: 1290 nM

Nc1nc(-c2ccccc2)nc2sc(Cc3ccccn3)cc12 [Example 16, 2-Phenyl-6-pyridin-2-ylmethyl-thieno[2,3-d]pyrimidin-4-ylamine]
Ki [1]: 5.71 nM
Ki [2]: 48.7 nM

N#Cc1cccc(-c2nc(N)c3cc(C(O)c4cccnc4N4CCCCC4)sc3n2)c1 (centres unmarked) [Example 17, 3-{4-Amino-6-[hydroxy-(3,4,5,6-tetrahydro-2H-[1,2′]bipyridinyl-3′-yl)-methyl]-thieno[2,3-d]pyrimidin-2-yl}-benzonitrile]
Ki [1]: 32 nM
Ki [2]: 277 nM

N#Cc1cccc(-c2nc(N)c3cc(Cc4cccnc4N4CCCCC4)sc3n2)c1 [Example 20, 3-[4-Amino-6-(3,4,5,6-tetrahydro-2H-[1,2′]bipyridinyl-3′-ylmethyl)-thieno[2,3-d]pyrimidin-2-yl]-benzonitrile]
Ki [1]: 45.3 nM
Ki [2]: 292 nM

N#Cc1cccc(-c2nc(N)c3cc(Cc4ccncc4Cl)sc3n2)c1 [Example 22, 3-[4-Amino-6-(3-chloro-pyridin-4-ylmethyl)-thieno[2,3-d]pyrimidin-2-yl]-benzonitrile]
Ki [1]: 25.3 nM
Ki [2]: > 610 nM

N#Cc1cccc(-c2nc(N)c3cc(Cc4cccnc4N4CCOCC4)sc3n2)c1 [Example 27, 3-[4-Amino-6-(2-morpholin-4-yl-pyridin-3-ylmethyl)-thieno[2,3-d]pyrimidin-2-yl]-benzonitrile]
Ki [1]: 39.8 nM
Ki [2]: 592 nM

N#Cc1cccc(-c2nc(N)c3cc(C(O)c4ccncc4)sc3n2)c1 (centres unmarked) [Example 28, 3-[4-Amino-6-(hydroxy-pyridin-4-yl-methyl)-thieno[2,3-d]pyrimidin-2-yl]-benzonitrile]
Ki [1]: 87.5 nM
Ki [2]: 787 nM

N#Cc1cccc(-c2nc(N)c3cc(C(O)c4cccnc4F)sc3n2)c1 (centres unmarked) [Example 29, 3-{4-Amino-6-[(2-fluoro-pyridin-3-yl)-hydroxy-methyl]-thieno[2,3-d]pyrimidin-2-yl}-benzonitrile]
Ki [1]: 5.09 nM
Ki [2]: 145 nM

N#Cc1cccc(-c2nc(N)c3cc(C(O)c4cccnc4)sc3n2)c1 (centres unmarked) [Example 31, 3-[4-Amino-6-(hydroxy-pyridin-3-yl-methyl)-thieno[2,3-d]pyrimidin-2-yl]-benzonitrile]
Ki [1]: 16 nM
Ki [2]: 285 nM

N#Cc1cccc(-c2nc(N)c3cc(Cc4cccnc4)sc3n2)c1 [Example 32, 3-(4-Amino-6-pyridin-3-ylmethyl-thieno[2,3-d]pyrimidin-2-yl)-benzonitrile]
Ki [1]: 17.6 nM
Ki [2]: 408 nM

COc1ccc(C(O)c2cc3c(N)nc(-c4cccc(C#N)c4)nc3s2)cn1 (centres unmarked) [Example 36, 3-{4-Amino-6-[hydroxy-(6-methoxy-pyridin-3-yl)-methyl]-thieno[2,3-d]pyrimidin-2-yl}-benzonitrile]
Ki [1]: 156 nM
Ki [2]: 726 nM

COc1ccc(Cc2cc3c(N)nc(-c4cccc(C#N)c4)nc3s2)cn1 [Example 37, 3-[4-Amino-6-(6-methoxy-pyridin-3-ylmethyl)-thieno[2,3-d]pyrimidin-2-yl]-benzonitrile]
Ki [1]: 64.3 nM
Ki [2]: 507 nM

COc1ncccc1C(=O)c1cc2c(N)nc(-c3cccc(C#N)c3)nc2s1 [Example 39, 3-[4-Amino-6-(2-methoxy-pyridine-3-carbonyl)-thieno[2,3-d]pyrimidin-2-yl]-benzonitrile]
Ki [1]: 53 nM
Ki [2]: 289 nM

Nc1nc(-c2cccc(F)c2)nc2sc(Cc3ccc(Cl)nc3)cc12 [Example 40, 6-(6-Chloro-pyridin-3-ylmethyl)-2-(3-fluoro-phenyl)-thieno[2,3-d]pyrimidin-4-ylamine]
Ki [1]: 442 nM
Ki [2]: 443 nM
